Experimental data: paper PMC12481576, “Barbituric Acid Derivatives as Covalent Inhibitors of Leishmania braziliensis Dihydroorotate Dehydrogenase” (Journal of Medicinal Chemistry, 2025)
Converted amounts (≈) assume the structure as drawn. “And” between values parts separate entries of the source, which are not always exact repeats. Equal entries are not always repeated. Where two headings read alike, the source gives them in different places.

What was measured:
[1] = Kinetic solubility assay in PBS pH 7.4; type: physicochemical; conditions: kinetic from dmso stock, 1% DMSO; for solubility kinetic at 2 h: 25 °C, pH 7.4, aqueous buffer, PBS pH 7.4, 200 μM test conc, 2 h at 25 °C; for solubility at 2 h: aqueous buffer, PBS pH 7.4, 200 µM, 2 hours at 25°C
Experimental: The plate was incubated for 2 h at 25 °C. The precipitates on the incubation plate were removed by filtration and the filtrates were quantified by LC-MS/MS. Calibration curves were prepared for each compound by using 5–6 points. Samples were analyzed by UV–vis.

HsDHODH = target: T1, HsDHODH (Homo sapiens, UniProt Q02127); assay: Selectivity assay: HsDHODH single-dose inhibition (DCIP reduction); type: biochemical
T1 construct: made in house
In short: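 Recombinant human DHODH at 20 nM final, purified by Ni-NTA affinity, tested at a single compound concentration in triplicate. DCIP reduction followed at 610 nm every 3 s over 60 s. Velocity expressed as % activity relative to enzyme control without compound.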

[2] = Cell viability / cytotoxicity assay (PrestoBlue, 72 h); type: cell-based; conditions: human; THP-1 cell line, 72 h, max 200 μM; read-out: CC50
In short: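 PMA-differentiated THP-1 cells (150 ng/mL PMA, 48 h; then 24 h in fresh medium) were exposed to compounds in serial dilution from 200 μM for 72 h at 37 °C, 5% CO2. Viability was read by PrestoBlue fluorescence (ex 560/em 590 nm) after 2 h.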

[3] = system: Leishmania braziliensis promastigotes; assay: Leishmanicidal activity, promastigote growth (SYBR Green, 72 h); type: cell-based, Leishmania (V.) braziliensis (MHOM/BR/1975/M2904); conditions: L. braziliensis promastigotes, max 200 μM
In short: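 Promastigotes seeded at 4 × 10^6 parasites/mL with compounds in decreasing concentrations up to 200 μM, 0.5% DMSO final, 72 h.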

[4] = Mouse liver microsome stability in the absence of cofactors (NCF); conditions: 60 min, no cofactor (NCF); for remaining at 1 h, 1 µM: mouse, microsomes, pH 7.4, % Remaining, T=60 NCF; for Raw data: analyte peak area, T=60 NCF: mouse liver microsomes, raw LC-MS area
in vitro = conditions: for recovery at 6 h, 10 µM / Papp: PAMPA; for recovery at 6 h, 10 µM / Avg Log Pe (cm/sec) / Avg Pe / Pe (nm/sec) n=1 / % Recovery n=1 / Pe (nm/sec) n=2 / % Recovery n=2 / Remarks (PAMPA): PBS pH 7.4/7.4, 6h at room temperature; for Papp: pH 7.4, permeability, PBS pH 7.4, 10 μM, 6 h; for recovery at 6 h, 10 µM / Avg Log Pe (cm/sec) / Avg Pe / LogPe (cm/sec) n1 / LogPe (cm/sec) n2 / % Recovery n=1 / % Recovery n=2 / Remarks (PAMPA): 10µM; for LogPe (cm/sec) n1: replicate n1, calculation section; for LogPe (cm/sec) n1 / LogPe (cm/sec) n2: PBS pH 7.4/7.4, 6h; for LogPe (cm/sec) n2: replicate n2, calculation section; for Pe (nm/sec) n=1 / % Recovery n=1: replicate n=1; for Pe (nm/sec) n=1 / Pe (nm/sec) n=2: 10µM (5% DMSO); for Pe (nm/sec) n=1 / Pe (nm/sec) n=2 / Remarks (PAMPA): LC-MS/MS; for Pe (nm/sec) n=2 / % Recovery n=2: replicate n=2
Experimental: Solutions of the compounds were prepared in duplicate by diluting the stock solutions (10 mM) in phosphate buffered saline (PBS) pH 7.4 at a final concentration of 10 μM (5% DMSO). The solutions diluted in PBS pH 7.4 were then added to the donor portion of the plate (300 μL/well), while in the acceptor portion PBS pH 7.4 (200 μL/well) was added. The two portions of the plate were then coupled, and the system was incubated for 6 h at room temperature. Samples of the initial donor solution (T0) were collected at the beginning (T0) and stored at 5 °C. The final concentrations of compounds in the donor, acceptor and T0 wells were quantified by LC-MS/MS.

[5] = read-out: Single dose (0h) % activity
[6] = read-out: Single dose (4h) % activity
[7] = n=1, mouse liver microsomes, n=1
[8] = n=2, mouse liver microsomes, n=2
[9] = pH 7.4, % Recovery n=1, replicate n=1
[10] = pH 7.4, % Recovery n=2, replicate n=2
[11] = pH 7.4, Avg % Recovery, average of n=2

T1 sequence (Q02127 whole entry): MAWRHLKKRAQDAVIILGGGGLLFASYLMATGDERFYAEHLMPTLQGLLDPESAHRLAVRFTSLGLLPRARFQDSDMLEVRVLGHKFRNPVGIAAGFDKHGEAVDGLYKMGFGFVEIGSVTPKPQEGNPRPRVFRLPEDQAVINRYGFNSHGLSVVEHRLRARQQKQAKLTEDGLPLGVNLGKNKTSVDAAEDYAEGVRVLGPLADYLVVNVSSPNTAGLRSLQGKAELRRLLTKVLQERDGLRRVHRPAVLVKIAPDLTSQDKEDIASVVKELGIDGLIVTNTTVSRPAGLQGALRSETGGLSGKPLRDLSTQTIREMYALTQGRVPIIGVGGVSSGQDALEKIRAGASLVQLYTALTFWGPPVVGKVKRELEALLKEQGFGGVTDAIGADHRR

SMILES	solubility kinetic at 2 h [1]	solubility at 2 h [1]	activity at 100 µM (HsDHODH; [5])	activity at 100 µM (HsDHODH; [6])	CC50 at 72 h [2]	EC50 ([3]; Leishmania braziliensis)	remaining at 1 h, 1 µM [4, 7]	remaining at 1 h, 1 µM [4, 8]	recovery at 6 h, 10 µM (in vitro; [9])	recovery at 6 h, 10 µM (in vitro; [10])	recovery at 6 h, 10 µM (in vitro; [11])	Papp (in vitro)	Avg Log Pe (cm/sec) (in vitro; average of n=2)	Avg Pe (in vitro; average of n=2)	LogPe (cm/sec) n1 (in vitro)	LogPe (cm/sec) n2 (in vitro)	Pe (nm/sec) n=1 (in vitro)	% Recovery n=1 (in vitro)	Pe (nm/sec) n=2 (in vitro)	% Recovery n=2 (in vitro)	further results
COc1cc(C=C2C(=O)NC(=O)NC2=O)ccc1O [2c, 5-(4-Hydroxy-3-methoxybenzylidene)pyrimidine-2,4,6(1H,3H,5H)-trione]	195 µM (≈ 51 µg/mL)	0.051 mg/mL (≈ 194 µM)	80 ± 9%	83 ± 8%	> 200 µM	> 200 µM	52.4%	51.5%	86.6%	96%	91.3%	8.4 nm/s	-6.08 cm/sec and -6.1 cm/sec	8.43 nm/s and 8.4 nm/s	-6.16 cm/sec	-6.00 cm/sec	6.94 nm/s and 6.9 nm/s	86.6%	9.91 nm/s and 9.9 nm/s	96.0%	
O=C1NC(=O)C(=Cc2ccc(O)c([N+](=O)[O-])c2)C(=O)N1 [2d, 5-(4-Hydroxy-3-nitrobenzylidene)pyrimidine-2,4,6(1H,3H,5H)-trione]	190 µM (≈ 52.7 µg/mL)	0.0527 mg/mL (≈ 190 µM)	90 ± 10%	92 ± 9%	> 200 µM	152 ± 28 µM															Remarks (PAMPA) (in vitro): Poor detection sensitivity/Compound might be unstable in assay matrix
O=C1NC(=O)C(=Cc2ccc(N3CCOCC3)cc2[N+](=O)[O-])C(=O)N1 [2e, 5-(4-Morpholino-2-nitrobenzylidene)pyrimidine-2,4,6(1H,3H,5H)-trione]	178 µM (≈ 61.8 µg/mL)	0.0534 mg/mL (≈ 154 µM)	80 ± 9%	86 ± 8%	> 200 µM	17 ± 11 µM	100%	93.1%	95.1%	101%	98.2%		-9.4 cm/sec and -9.35 cm/sec	0.00444 nm/s	-9.34 cm/sec	-9.37 cm/sec	0.00461 nm/s	95.05%	0.00426 nm/s		Raw data: analyte peak area, T=60 NCF ([4]; replicate 1 (left block)): 19133; Raw data: analyte peak area, T=60 NCF ([4]; replicate 2 (right block)): 18454; Remarks (PAMPA) (in vitro): No peak detected in acceptor samples
O=C1NC(=O)C(=Cc2ccc(-c3ccccc3F)[nH]2)C(=O)N1 [2h, 5-((5-(2-Fluorophenyl)-1H-pyrrol-2-yl)methylene)pyrimidine-2,4,6(1H,3H,5H)-trione]	4.63 µM (≈ 1.39 µg/mL)	0.0016 mg/mL (≈ 5.35 µM)	100 ± 11%	71 ± 7%	> 200 µM	5.4 to 23 µM	1%	1.5%	38%	43.3%	40.6%	15.4 nm/s	-5.8 cm/sec and -5.83 cm/sec	15.4 nm/s and 15.39 nm/s	-5.97 cm/sec	-5.70 cm/sec	10.8 nm/s and 10.80 nm/s	37.96%	20.0 nm/s and 19.97 nm/s	43.27%	EC50 [3]: 5 ± 2 µM
O=C1NC(=O)C(=C/C=C/c2ccccc2)C(=O)N1 [2i, (E)-5-(3-Phenylallylidene)pyrimidine-2,4,6(1H,3H,5H)-trione]	41.4 µM (≈ 10 µg/mL)	0.01 mg/mL (≈ 41.3 µM)	93 ± 11%	91 ± 9%	193 ± 67 µM	11 ± 5 µM	26.3%	19.3%	14.3%	15.8%	15%	57.5 nm/s	-5.2 cm/sec and -5.24 cm/sec	57.5 nm/s and 57.50 nm/s	-5.25 cm/sec	-5.23 cm/sec	56.6 nm/s and 56.58 nm/s	14.26%	58.4 nm/s and 58.42 nm/s	15.77%	inhibition of HsDHODH in single-dose assays (HsDHODH; 100 μM, with or without 4-h incubation): no inhibition; EC50 [3]: 10.5 ± 3.5 µM; Raw data: analyte peak area, T=60 NCF ([4]; replicate 1 (left block)): 1230; Raw data: analyte peak area, T=60 NCF ([4]; replicate 2 (right block)): 835
